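Briefly, cells in 96-well plates were exposed to five compound concentrations for 48 h, and endpoints were estimated by linear interpolation. The concentration for 50% growth inhibition is given as GI50. TGI: concentration producing complete growth inhibition.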
Assays:
Assay in all cases: growth of human tumour cells (NCI), 48 h
CCRF-CEM leukemia = system: CCRF-CEM leukemia
HS 578T breast = system: HS 578T breast
K-562 leukemia = system: K-562 leukemia
LOX IMVI melanoma = system: LOX IMVI melanoma
MOLT-4 leukemia = system: MOLT-4 leukemia
OVCAR-4 ovarian = system: OVCAR-4 ovarian
RPMI-8226 leukemia = system: RPMI-8226 leukemia
A549 NSCLC = system: A549 NSCLC
ACHN renal = system: ACHN renal
BT-549 breast = system: BT-549 breast
CAKI-1 renal = system: CAKI-1 renal
COLO 205 colon = system: COLO 205 colon
EKVX NSCLC = system: EKVX NSCLC
HCC-2998 colon = system: HCC-2998 colon
HCT-116 colon = system: HCT-116 colon
HCT-15 colon = system: HCT-15 colon
HL-60(TB) leukemia = system: HL-60(TB) leukemia
HOP-62 NSCLC = system: HOP-62 NSCLC
HT29 colon = system: HT29 colon
IGROV1 ovarian = system: IGROV1 ovarian
KM12 colon = system: KM12 colon
M14 melanoma = system: M14 melanoma
MCF7 breast = system: MCF7 breast
MDA-MB-435 = system: MDA-MB-435
NCI-H226 lung = system: NCI-H226 lung
NCI-H23 lung = system: NCI-H23 lung
NCI-H460 lung = system: NCI-H460 lung
NCI-H522 lung = system: NCI-H522 lung
NCI/ADR-RES ovarian = system: NCI/ADR-RES ovarian
OVCAR-3 ovarian = system: OVCAR-3 ovarian
OVCAR-5 ovarian = system: OVCAR-5 ovarian
OVCAR-8 ovarian = system: OVCAR-8 ovarian
PC-3 prostate = system: PC-3 prostate
RXF 393 renal = system: RXF 393 renal
SF-268 CNS = system: SF-268 CNS
SF-295 CNS = system: SF-295 CNS
SF-539 CNS = system: SF-539 CNS
SK-MEL-2 melanoma = system: SK-MEL-2 melanoma
SK-MEL-28 melanoma = system: SK-MEL-28 melanoma
SK-MEL-5 melanoma = system: SK-MEL-5 melanoma
SK-OV-3 ovarian = system: SK-OV-3 ovarian
SN12C renal = system: SN12C renal
SNB-19 CNS = system: SNB-19 CNS
SR leukemia = system: SR leukemia
SW-620 colon = system: SW-620 colon
U251 CNS = system: U251 CNS
UACC-257 melanoma = system: UACC-257 melanoma
UACC-62 melanoma = system: UACC-62 melanoma
UO-31 renal = system: UO-31 renal
786-0 renal = system: 786-0 renal
A498 renal = system: A498 renal
DU-145 prostate = system: DU-145 prostate
HOP-92 NSCLC = system: HOP-92 NSCLC
MALME-3M melanoma = system: MALME-3M melanoma
MDA-MB-231 breast = system: MDA-MB-231 breast
SNB-75 CNS = system: SNB-75 CNS
TK-10 renal = system: TK-10 renal

C#Cc1ccc(-n2c(/C=C/c3ccc(Cl)c(F)c3)nc3ncccc3c2=O)cc1
GI50 (CCRF-CEM leukemia): 0.29 µM
TGI (CCRF-CEM leukemia): > 100 µM
GI50 (HS 578T breast): 0.419 µM
TGI (HS 578T breast): > 100 µM
GI50 (K-562 leukemia): 0.337 µM
TGI (K-562 leukemia): > 100 µM
GI50 (LOX IMVI melanoma): 0.183 µM
TGI (LOX IMVI melanoma): 0.504 µM
GI50 (MOLT-4 leukemia): 0.546 µM
TGI (MOLT-4 leukemia): > 100 µM
GI50 (OVCAR-4 ovarian): 0.27 µM
TGI (OVCAR-4 ovarian): 1.03 µM
GI50 (RPMI-8226 leukemia): 0.351 µM
TGI (RPMI-8226 leukemia): 2.03 µM

O=C(Nc1ccc(I)cc1C(=O)NCCO)c1cccs1
TGI (A549 NSCLC): > 100 µM
TGI (ACHN renal): > 100 µM
TGI (BT-549 breast): > 100 µM
TGI (CAKI-1 renal): > 100 µM
TGI (CCRF-CEM leukemia): > 100 µM
TGI (COLO 205 colon): > 100 µM
TGI (EKVX NSCLC): > 100 µM
TGI (HCC-2998 colon): > 100 µM
TGI (HCT-116 colon): > 100 µM
TGI (HCT-15 colon): > 100 µM
TGI (HL-60(TB) leukemia): > 100 µM
TGI (HOP-62 NSCLC): > 100 µM
TGI (HT29 colon): > 100 µM
TGI (IGROV1 ovarian): > 100 µM
TGI (K-562 leukemia): > 100 µM
TGI (KM12 colon): > 100 µM
TGI (LOX IMVI melanoma): > 100 µM
TGI (M14 melanoma): > 100 µM
TGI (MCF7 breast): > 100 µM
TGI (MDA-MB-435): > 100 µM
TGI (MOLT-4 leukemia): > 100 µM
TGI (NCI-H226 lung): > 100 µM
TGI (NCI-H23 lung): > 100 µM
TGI (NCI-H460 lung): > 100 µM
TGI (NCI-H522 lung): > 100 µM
TGI (NCI/ADR-RES ovarian): > 100 µM
TGI (OVCAR-3 ovarian): > 100 µM
TGI (OVCAR-4 ovarian): > 100 µM
TGI (OVCAR-5 ovarian): > 100 µM
TGI (OVCAR-8 ovarian): > 100 µM
TGI (PC-3 prostate): > 100 µM
TGI (RPMI-8226 leukemia): > 100 µM
TGI (RXF 393 renal): > 100 µM
TGI (SF-268 CNS): > 100 µM
TGI (SF-295 CNS): > 100 µM
TGI (SF-539 CNS): > 100 µM
TGI (SK-MEL-2 melanoma): > 100 µM
TGI (SK-MEL-28 melanoma): > 100 µM
TGI (SK-MEL-5 melanoma): > 100 µM
TGI (SK-OV-3 ovarian): > 100 µM
TGI (SN12C renal): > 100 µM
TGI (SNB-19 CNS): > 100 µM
TGI (SR leukemia): > 100 µM
TGI (SW-620 colon): > 100 µM
TGI (U251 CNS): > 100 µM
TGI (UACC-257 melanoma): > 100 µM
TGI (UACC-62 melanoma): > 100 µM
TGI (UO-31 renal): > 100 µM

Nc1n[nH]c2ccc([C@@H]3Nc4ccc5[nH]ncc5c4[C@H]4[C@H]5CCC(C5)[C@H]43)cc12
GI50 (786-0 renal): 0.757 µM
TGI (786-0 renal): 33.8 µM
GI50 (A498 renal): 0.168 µM
TGI (A498 renal): 0.641 µM
GI50 (A549 NSCLC): 0.586 µM
TGI (A549 NSCLC): > 100 µM
GI50 (ACHN renal): 0.895 µM
TGI (ACHN renal): > 72 µM
GI50 (BT-549 breast): 0.489 µM
TGI (BT-549 breast): 9.29 µM
GI50 (CAKI-1 renal): 0.436 µM
TGI (CAKI-1 renal): 24.7 µM
GI50 (CCRF-CEM leukemia): 0.383 µM
TGI (CCRF-CEM leukemia): > 100 µM
GI50 (COLO 205 colon): 0.375 µM
TGI (COLO 205 colon): 5.68 µM
GI50 (DU-145 prostate): 0.445 µM
TGI (DU-145 prostate): > 28.3 µM
GI50 (EKVX NSCLC): 0.606 µM
TGI (EKVX NSCLC): > 100 µM
GI50 (HCC-2998 colon): 0.381 µM
TGI (HCC-2998 colon): 11.6 µM
GI50 (HCT-116 colon): 0.404 µM
TGI (HCT-116 colon): > 100 µM
GI50 (HCT-15 colon): 0.407 µM
TGI (HCT-15 colon): > 100 µM
GI50 (HL-60(TB) leukemia): 0.247 µM
TGI (HL-60(TB) leukemia): 0.654 µM
GI50 (HOP-62 NSCLC): 0.597 µM
TGI (HOP-62 NSCLC): > 74 µM
GI50 (HOP-92 NSCLC): 1.45 µM
TGI (HOP-92 NSCLC): 14.9 µM
GI50 (HS 578T breast): 0.31 µM
TGI (HS 578T breast): 12.7 µM
GI50 (HT29 colon): 0.35 µM
TGI (HT29 colon): > 36.8 µM
GI50 (IGROV1 ovarian): 0.513 µM
TGI (IGROV1 ovarian): > 51.6 µM
GI50 (K-562 leukemia): 0.264 µM
TGI (K-562 leukemia): > 100 µM
GI50 (KM12 colon): 0.406 µM
TGI (KM12 colon): 10.8 µM
GI50 (LOX IMVI melanoma): 0.7 µM
TGI (LOX IMVI melanoma): 14.5 µM
GI50 (M14 melanoma): 0.293 µM
TGI (M14 melanoma): > 40.7 µM
GI50 (MALME-3M melanoma): 0.461 µM
TGI (MALME-3M melanoma): > 47.5 µM
GI50 (MCF7 breast): 0.363 µM
TGI (MCF7 breast): > 100 µM
GI50 (MDA-MB-231 breast): 0.688 µM
TGI (MDA-MB-231 breast): 18.5 µM
GI50 (MOLT-4 leukemia): 0.407 µM
TGI (MOLT-4 leukemia): > 51.3 µM
GI50 (NCI-H226 lung): 0.331 µM
TGI (NCI-H226 lung): 2.88 µM
GI50 (NCI-H23 lung): 0.654 µM
TGI (NCI-H23 lung): > 46 µM
GI50 (NCI-H460 lung): 0.358 µM
TGI (NCI-H460 lung): 10.9 µM
GI50 (NCI-H522 lung): 0.31 µM
TGI (NCI-H522 lung): 3.57 µM
GI50 (NCI/ADR-RES ovarian): 0.525 µM
TGI (NCI/ADR-RES ovarian): > 44.1 µM
GI50 (OVCAR-3 ovarian): 0.23 µM
TGI (OVCAR-3 ovarian): 0.64 µM
GI50 (OVCAR-4 ovarian): 2.05 µM
TGI (OVCAR-4 ovarian): > 100 µM
GI50 (OVCAR-5 ovarian): 0.572 µM
TGI (OVCAR-5 ovarian): 49.6 µM
GI50 (OVCAR-8 ovarian): 0.479 µM
TGI (OVCAR-8 ovarian): > 47.5 µM
GI50 (PC-3 prostate): 0.397 µM
TGI (PC-3 prostate): 23 µM
GI50 (RPMI-8226 leukemia): 0.338 µM
TGI (RPMI-8226 leukemia): 2.37 µM
GI50 (SF-268 CNS): 1.56 µM
TGI (SF-268 CNS): 43.7 µM
GI50 (SF-295 CNS): 0.302 µM
TGI (SF-295 CNS): 3.47 µM
GI50 (SF-539 CNS): 0.238 µM
TGI (SF-539 CNS): 0.673 µM
GI50 (SK-MEL-2 melanoma): 1.24 µM
TGI (SK-MEL-2 melanoma): 40.8 µM
GI50 (SK-MEL-28 melanoma): 0.91 µM
TGI (SK-MEL-28 melanoma): > 76.3 µM
GI50 (SK-MEL-5 melanoma): 0.403 µM
TGI (SK-MEL-5 melanoma): 2.6 µM
GI50 (SK-OV-3 ovarian): 0.823 µM
TGI (SK-OV-3 ovarian): > 80.1 µM
GI50 (SN12C renal): 0.618 µM
TGI (SN12C renal): > 89.7 µM
GI50 (SNB-19 CNS): 0.515 µM
TGI (SNB-19 CNS): > 100 µM
GI50 (SNB-75 CNS): 0.16 µM
TGI (SNB-75 CNS): 11.3 µM
GI50 (SR leukemia): 0.28 µM
TGI (SR leukemia): 20.2 µM
GI50 (SW-620 colon): 0.372 µM
TGI (SW-620 colon): > 100 µM
GI50 (TK-10 renal): 8.25 µM
TGI (TK-10 renal): > 79.5 µM
GI50 (U251 CNS): 0.435 µM
TGI (U251 CNS): > 100 µM
GI50 (UACC-257 melanoma): 15.8 µM
TGI (UACC-257 melanoma): > 100 µM
GI50 (UACC-62 melanoma): 0.389 µM
TGI (UACC-62 melanoma): > 61.1 µM
GI50 (UO-31 renal): 0.698 µM
TGI (UO-31 renal): 46.5 µM
